Assay results from ChEMBL document CHEMBL5465560, “Selectivity Literature for EUbOPEN Chemogenomic Library” (2024).

How the values were obtained:
[1] = biological target: Serine/threonine-protein kinase 16 (Homo sapiens, UniProt O75716); assay: Selectivity interaction (LanthaScreen Eu Kinase Binding Assay) EUB0001632a STK16; conditions: at 10 µM
[2] = biological target: Ribosomal protein S6 kinase alpha-4 (Homo sapiens) (UniProt O75676); assay: Selectivity interaction (KinomeScan (DiscoverX)) EUB0000695a RPS6KA4; conditions: at 100 nM
[3] = biological target: Dual specificity tyrosine-phosphorylation-regulated kinase 1A (Homo sapiens, UniProt Q13627); assay: Selectivity interaction (Kinase panel (DSF assay)) EUB0001559a DYRK1A
[4] = biological target: Tyrosine-protein kinase ABL2 (Homo sapiens, UniProt P42684); assay: Selectivity interaction (KinomeScan (DiscoverX)) EUB0000595a ABL2; conditions: at 10 µM
[5] = biological target: T1, cGMP-dependent protein kinase 1 (Homo sapiens) (UniProt Q13976); assay: Selectivity interaction (Ambit KINOMEscan and KiNATiv profiling in Jurkat cells) EUB0000090b PRKG1; assay type: cell-based; conditions: at 1 µM
T1 sequence (whole entry): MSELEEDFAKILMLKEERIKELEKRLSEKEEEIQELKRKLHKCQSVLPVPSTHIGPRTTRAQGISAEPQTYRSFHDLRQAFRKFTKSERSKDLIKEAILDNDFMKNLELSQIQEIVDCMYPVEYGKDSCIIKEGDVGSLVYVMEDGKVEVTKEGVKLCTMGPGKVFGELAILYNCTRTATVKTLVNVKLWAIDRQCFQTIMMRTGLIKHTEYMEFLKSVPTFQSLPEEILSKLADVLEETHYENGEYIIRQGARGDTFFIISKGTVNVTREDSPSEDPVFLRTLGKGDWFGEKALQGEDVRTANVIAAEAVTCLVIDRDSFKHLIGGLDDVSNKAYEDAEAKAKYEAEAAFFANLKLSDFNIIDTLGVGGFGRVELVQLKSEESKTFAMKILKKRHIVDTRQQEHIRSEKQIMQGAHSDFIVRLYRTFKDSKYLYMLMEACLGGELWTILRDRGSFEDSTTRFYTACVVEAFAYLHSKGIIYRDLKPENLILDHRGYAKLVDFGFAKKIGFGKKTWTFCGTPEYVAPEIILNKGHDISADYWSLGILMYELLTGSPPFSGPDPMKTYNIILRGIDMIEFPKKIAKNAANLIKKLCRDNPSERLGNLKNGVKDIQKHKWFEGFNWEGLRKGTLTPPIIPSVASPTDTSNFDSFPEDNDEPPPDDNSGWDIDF

[6] = biological target: Serine/threonine-protein kinase mTOR (Homo sapiens, UniProt P42345); assay: Selectivity interaction (KinomeScan (DiscoverX)) EUB0000045b MTOR
[7] = biological target: Serine/threonine-protein kinase PLK2 (Homo sapiens, UniProt Q9NYY3); assay: Selectivity interaction (KinomeScan (DiscoverX)) EUB0001079a PLK2; conditions: at 1 µM
[8] = biological target: T2, Serine/threonine-protein kinase 17A (Homo sapiens) (UniProt Q9UEE5); assay: Selectivity interaction (KinomeScan (DiscoverX)) EUB0000229b STK17A; conditions: at 10 µM
T2 sequence (whole entry): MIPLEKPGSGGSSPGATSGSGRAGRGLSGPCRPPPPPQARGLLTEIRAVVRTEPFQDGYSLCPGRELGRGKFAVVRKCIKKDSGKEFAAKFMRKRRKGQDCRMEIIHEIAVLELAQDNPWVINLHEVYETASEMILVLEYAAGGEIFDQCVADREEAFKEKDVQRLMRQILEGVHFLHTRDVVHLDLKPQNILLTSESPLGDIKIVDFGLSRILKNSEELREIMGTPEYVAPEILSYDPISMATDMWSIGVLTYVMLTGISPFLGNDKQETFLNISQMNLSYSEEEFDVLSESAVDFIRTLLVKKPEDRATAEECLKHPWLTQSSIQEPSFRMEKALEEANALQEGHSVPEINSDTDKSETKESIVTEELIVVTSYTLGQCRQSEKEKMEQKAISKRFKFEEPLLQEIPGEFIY

[9] = biological target: TRAF2 and NCK-interacting protein kinase (Homo sapiens) (UniProt Q9UKE5); assay: Selectivity interaction (KinomeScan (DiscoverX)) EUB0000229b TNIK; conditions: at 10 µM
[10] = biological target: Calcium/calmodulin-dependent protein kinase type 1D (Homo sapiens) (UniProt Q8IU85); conditions: at 10 µM
[11] = biological target: T3, Ephrin type-A receptor 3 (Homo sapiens) (UniProt P29320); assay: Selectivity interaction (KinomeScan (DiscoverX)) EUB0000618a EPHA3; conditions: at 10 µM
T3 sequence (whole entry): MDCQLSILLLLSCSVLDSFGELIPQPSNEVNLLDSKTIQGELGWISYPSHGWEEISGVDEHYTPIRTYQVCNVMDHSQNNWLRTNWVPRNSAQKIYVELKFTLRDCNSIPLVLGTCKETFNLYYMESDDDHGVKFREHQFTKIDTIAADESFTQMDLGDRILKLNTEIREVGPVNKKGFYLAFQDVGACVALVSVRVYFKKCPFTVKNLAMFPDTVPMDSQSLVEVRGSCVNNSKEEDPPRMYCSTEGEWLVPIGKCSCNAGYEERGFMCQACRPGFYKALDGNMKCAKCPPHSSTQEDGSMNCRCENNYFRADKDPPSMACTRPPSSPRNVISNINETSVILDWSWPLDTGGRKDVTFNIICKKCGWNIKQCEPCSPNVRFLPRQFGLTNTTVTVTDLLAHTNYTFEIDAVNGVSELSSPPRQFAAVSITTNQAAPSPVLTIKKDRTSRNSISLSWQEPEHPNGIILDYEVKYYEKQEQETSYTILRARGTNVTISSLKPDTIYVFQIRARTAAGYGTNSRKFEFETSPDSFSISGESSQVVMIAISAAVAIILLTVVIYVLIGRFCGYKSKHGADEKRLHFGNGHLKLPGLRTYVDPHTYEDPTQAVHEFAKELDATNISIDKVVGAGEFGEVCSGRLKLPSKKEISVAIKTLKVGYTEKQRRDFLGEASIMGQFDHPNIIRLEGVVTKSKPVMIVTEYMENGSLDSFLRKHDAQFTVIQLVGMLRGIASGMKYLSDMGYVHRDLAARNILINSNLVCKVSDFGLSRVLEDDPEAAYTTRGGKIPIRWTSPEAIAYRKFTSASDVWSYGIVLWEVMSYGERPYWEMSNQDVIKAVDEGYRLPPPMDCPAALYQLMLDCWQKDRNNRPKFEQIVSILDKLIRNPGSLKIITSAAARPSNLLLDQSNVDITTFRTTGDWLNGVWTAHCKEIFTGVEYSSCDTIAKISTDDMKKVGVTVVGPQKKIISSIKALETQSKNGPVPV

Ribosomal protein S6 kinase alpha-4 (Homo sapiens), sequence (O75676 whole entry, looked up): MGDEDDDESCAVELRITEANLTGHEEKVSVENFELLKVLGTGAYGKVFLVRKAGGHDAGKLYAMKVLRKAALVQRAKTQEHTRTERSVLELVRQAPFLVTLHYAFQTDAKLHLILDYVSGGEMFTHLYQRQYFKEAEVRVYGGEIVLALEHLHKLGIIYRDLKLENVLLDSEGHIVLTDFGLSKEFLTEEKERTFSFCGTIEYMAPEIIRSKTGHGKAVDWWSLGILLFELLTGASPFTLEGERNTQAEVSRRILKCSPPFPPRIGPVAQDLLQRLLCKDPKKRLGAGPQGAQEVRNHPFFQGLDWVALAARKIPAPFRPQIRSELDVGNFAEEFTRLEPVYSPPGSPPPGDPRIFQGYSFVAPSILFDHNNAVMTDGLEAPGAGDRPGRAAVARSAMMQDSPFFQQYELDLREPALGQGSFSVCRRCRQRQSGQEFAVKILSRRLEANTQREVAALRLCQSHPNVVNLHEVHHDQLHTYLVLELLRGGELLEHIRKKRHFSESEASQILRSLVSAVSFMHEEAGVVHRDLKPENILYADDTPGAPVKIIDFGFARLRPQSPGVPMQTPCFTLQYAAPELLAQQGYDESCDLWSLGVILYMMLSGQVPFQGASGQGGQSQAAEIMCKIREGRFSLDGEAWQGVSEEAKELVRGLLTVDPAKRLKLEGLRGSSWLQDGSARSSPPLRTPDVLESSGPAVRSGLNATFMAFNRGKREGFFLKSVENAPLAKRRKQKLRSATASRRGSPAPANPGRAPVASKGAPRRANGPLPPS
Serine/threonine-protein kinase PLK2, sequence (Q9NYY3 whole entry, looked up): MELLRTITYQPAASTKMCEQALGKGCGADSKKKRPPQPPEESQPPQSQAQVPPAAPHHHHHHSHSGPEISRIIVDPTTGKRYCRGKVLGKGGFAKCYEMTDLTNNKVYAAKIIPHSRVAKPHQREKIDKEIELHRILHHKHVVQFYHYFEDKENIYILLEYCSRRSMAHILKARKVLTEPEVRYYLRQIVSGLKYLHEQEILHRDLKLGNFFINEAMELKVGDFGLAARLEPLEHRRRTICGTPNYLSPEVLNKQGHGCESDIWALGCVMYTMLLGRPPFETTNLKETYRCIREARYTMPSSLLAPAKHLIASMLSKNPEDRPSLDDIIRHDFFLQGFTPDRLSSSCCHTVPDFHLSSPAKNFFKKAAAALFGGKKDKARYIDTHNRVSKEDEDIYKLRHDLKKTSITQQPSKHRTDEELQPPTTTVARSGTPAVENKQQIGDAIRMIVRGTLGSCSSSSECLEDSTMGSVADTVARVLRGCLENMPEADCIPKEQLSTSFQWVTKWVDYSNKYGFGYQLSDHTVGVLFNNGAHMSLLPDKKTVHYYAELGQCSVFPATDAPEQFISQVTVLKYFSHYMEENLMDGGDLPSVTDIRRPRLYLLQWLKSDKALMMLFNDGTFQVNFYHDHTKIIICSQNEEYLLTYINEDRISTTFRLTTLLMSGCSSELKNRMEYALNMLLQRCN
Serine/threonine-protein kinase 16, sequence (O75716 whole entry): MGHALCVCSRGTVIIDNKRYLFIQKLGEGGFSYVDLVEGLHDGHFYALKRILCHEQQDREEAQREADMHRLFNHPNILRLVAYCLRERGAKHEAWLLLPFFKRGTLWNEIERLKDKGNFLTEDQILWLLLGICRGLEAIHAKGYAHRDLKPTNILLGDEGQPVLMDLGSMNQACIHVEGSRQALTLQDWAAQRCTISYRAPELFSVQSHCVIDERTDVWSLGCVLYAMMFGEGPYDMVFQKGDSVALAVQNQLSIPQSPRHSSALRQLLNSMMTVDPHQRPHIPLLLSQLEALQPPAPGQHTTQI
Tyrosine-protein kinase ABL2, sequence (P42684 whole entry): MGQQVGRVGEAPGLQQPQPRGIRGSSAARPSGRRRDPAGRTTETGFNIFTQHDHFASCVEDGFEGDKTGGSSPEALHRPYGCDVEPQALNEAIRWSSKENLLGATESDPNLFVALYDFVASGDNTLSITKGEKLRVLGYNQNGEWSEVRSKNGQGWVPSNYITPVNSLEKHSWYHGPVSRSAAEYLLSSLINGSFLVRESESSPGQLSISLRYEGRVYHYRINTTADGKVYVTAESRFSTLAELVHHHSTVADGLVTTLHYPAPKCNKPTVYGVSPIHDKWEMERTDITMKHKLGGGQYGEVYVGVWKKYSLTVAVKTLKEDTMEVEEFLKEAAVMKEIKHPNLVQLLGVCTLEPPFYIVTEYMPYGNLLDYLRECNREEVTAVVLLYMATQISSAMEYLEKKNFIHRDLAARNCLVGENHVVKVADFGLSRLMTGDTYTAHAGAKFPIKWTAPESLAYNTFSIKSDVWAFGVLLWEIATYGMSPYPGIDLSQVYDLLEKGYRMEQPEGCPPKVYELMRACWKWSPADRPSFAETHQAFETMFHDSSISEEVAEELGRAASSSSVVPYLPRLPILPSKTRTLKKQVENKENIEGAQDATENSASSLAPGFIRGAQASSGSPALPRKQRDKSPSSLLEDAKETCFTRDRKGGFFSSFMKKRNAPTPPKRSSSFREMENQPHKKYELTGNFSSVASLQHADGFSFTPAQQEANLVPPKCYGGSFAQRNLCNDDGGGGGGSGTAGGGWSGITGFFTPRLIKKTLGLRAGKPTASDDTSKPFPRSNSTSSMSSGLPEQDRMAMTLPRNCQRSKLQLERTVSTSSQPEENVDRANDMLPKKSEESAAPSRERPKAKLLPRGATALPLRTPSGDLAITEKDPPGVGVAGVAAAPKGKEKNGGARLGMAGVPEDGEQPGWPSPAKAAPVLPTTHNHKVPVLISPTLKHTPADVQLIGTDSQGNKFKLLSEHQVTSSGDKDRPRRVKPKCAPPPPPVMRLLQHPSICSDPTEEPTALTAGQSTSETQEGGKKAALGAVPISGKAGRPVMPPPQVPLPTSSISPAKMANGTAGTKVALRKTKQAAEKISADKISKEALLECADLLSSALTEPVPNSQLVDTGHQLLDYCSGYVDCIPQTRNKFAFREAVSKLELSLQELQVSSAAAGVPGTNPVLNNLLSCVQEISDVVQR
Calcium/calmodulin-dependent protein kinase type 1D (Homo sapiens), sequence (Q8IU85 whole entry, looked up): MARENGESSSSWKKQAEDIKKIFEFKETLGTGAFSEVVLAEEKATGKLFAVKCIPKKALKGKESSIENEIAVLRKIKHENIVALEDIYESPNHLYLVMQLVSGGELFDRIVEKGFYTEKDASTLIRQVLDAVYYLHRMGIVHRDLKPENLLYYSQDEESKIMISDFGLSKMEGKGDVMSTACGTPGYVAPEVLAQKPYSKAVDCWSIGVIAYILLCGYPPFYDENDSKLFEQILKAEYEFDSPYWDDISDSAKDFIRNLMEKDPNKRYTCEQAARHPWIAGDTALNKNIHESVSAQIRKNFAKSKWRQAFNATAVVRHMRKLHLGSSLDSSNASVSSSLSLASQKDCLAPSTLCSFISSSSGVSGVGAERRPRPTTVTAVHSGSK
TRAF2 and NCK-interacting protein kinase (Homo sapiens), sequence (Q9UKE5 whole entry, looked up): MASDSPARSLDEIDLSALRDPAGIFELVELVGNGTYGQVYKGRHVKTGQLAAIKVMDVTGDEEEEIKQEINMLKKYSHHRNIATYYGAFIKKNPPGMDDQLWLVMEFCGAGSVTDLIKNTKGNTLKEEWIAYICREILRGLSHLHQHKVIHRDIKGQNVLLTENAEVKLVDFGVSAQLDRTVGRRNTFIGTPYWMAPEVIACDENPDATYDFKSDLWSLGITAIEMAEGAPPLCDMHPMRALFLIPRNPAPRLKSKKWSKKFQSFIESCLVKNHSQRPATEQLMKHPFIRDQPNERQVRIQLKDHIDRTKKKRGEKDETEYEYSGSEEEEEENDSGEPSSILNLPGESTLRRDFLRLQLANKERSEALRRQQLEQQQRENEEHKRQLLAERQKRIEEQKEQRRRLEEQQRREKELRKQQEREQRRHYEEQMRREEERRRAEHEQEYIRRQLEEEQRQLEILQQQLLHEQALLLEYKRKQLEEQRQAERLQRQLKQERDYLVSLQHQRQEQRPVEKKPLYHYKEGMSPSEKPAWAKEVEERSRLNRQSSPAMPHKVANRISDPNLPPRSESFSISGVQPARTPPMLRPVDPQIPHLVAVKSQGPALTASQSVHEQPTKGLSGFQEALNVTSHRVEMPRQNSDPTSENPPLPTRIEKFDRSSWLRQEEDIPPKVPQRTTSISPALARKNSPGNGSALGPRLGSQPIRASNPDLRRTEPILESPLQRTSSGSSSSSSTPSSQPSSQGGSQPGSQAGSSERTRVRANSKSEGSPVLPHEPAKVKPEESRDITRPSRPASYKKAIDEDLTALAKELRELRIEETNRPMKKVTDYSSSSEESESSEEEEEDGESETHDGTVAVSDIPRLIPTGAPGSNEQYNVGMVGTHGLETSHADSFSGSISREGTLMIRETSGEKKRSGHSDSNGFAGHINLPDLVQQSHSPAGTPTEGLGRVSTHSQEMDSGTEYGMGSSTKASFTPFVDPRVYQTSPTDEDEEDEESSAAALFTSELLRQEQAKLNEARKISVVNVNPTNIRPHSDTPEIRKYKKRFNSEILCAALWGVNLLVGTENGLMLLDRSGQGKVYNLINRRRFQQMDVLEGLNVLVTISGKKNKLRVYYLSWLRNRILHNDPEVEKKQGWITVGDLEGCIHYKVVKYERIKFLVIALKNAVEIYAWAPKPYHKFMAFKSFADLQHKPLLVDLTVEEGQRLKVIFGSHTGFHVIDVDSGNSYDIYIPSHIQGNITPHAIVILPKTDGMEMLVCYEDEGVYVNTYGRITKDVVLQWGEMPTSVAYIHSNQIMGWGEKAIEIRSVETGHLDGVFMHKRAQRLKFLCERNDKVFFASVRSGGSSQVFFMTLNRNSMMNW

Compound `Cn1cc(-n2cnc3c(NCc4nc5cc(Cl)c(Cl)cc5[nH]4)nc(N4CCOCC4)nc32)cn1` has a % of inhibition [1] of -24.9%.

`Cc1cc(F)c(C(=O)Nc2cccc(-c3nncn3C(C)C)n2)cc1-n1cnc(C2CC2)c1` gave a % of control [2] of 100%.

`CN(C(=O)c1cnn2cccnc12)c1cc2c(cc1N1CCOCC1)C(=O)N(C[C@@H](F)C(C)(C)O)C2` was tested, and the dTM [3] was -0.3 K.

`COCC(=O)NC/C=C/c1ccc2ncnc(Nc3ccc(Oc4ccc(C)nc4)c(C)c3)c2c1` [CP-724714] was tested, and the % of control [4] was 100%.

`CN(C)C/C=C/C(=O)Nc1ccc(C(=O)N2CCCC(Nc3ncc(Cl)c(-c4c[nH]c5ccccc45)n3)C2)cc1` (configuration not stated) was tested, and the % of control [5] was 97%.

`C=CC(=O)Nc1cc(-n2c(=O)ccc3cnc4ccc(-c5ccc(NS(C)(=O)=O)cc5)cc4c32)ccc1C` was tested, and the % of control ([6]; at 1 µM) was 45% and the % of control ([6]; at 10 µM) was 0%.

Work on `Nc1cnc(N2CCc3cc(S(=O)(=O)Nc4c(F)cc(Cl)cc4F)cc(N4CCCC4=O)c32)nc1` [TP-020n] yielded a % of control [7] of 100%.

`COc1cc(N(C)c2ccnc3ccc(C(F)(F)F)cc23)cc(OC)c1OC` showed a % binding [8] of 92% and a % binding [9] of 69%.

In the case of `Cc1cc([C@@H](C)Nc2ccccc2C(=O)O)c2nc(N3CCOCC3)cc(=O)n2c1` [AZD-6482], the % of control [10] is reported as 100%.

`O[C@H]1CC[C@H](Nc2ncc3nc(Nc4c(F)cc(F)cc4F)n([C@H]4CCOC4)c3n2)CC1` was tested, and the % of control [11] was 85%.
